Test results published in patent publication US20250163104A1, “MACROCYCLIC IMMUNOMODULATORS” (priority 2021, published 2025).
Where a SMILES comes first, the peptide text is derived from it. Bridges are numbered along the chain shown (N, C = ends). [ ]: non-standard residue; d: D form. The star is where a group is joined. ξ: configuration not given here. Phe(4-COOH) = N[C@@H](Cc1ccc(C(=O)O)cc1)C(=O)O; Bip = N[C@@H](Cc1ccc(-c2ccccc2)cc1)C(=O)O; Phe(3-Me) = Cc1cccc(C[C@H](N)C(=O)O)c1; 4Pal = N[C@@H](Cc1ccncc1)C(=O)O; Cha = N[C@@H](CC1CCCCC1)C(=O)O; Cit = NC(=O)NCCC[C@H](N)C(=O)O; Ile(3ξ) = CCC(C)[C@H](N)C(=O)O; Tle = CC(C)(C)[C@H](N)C(=O)O; Carboxymethyl = O=C(O)C*; Orn = NCCC[C@H](N)C(=O)O; Dab = NCC[C@H](N)C(=O)O; Dap = NC[C@H](N)C(=O)O

target: T1, human PD-1 / PD-L1-Ig binding on Jurkat cell line over-expressing human PD-1 (Jurkat-PD-1) (Homo sapiens, UniProt Q15116); test: Jurkat-PD-1 Cell Binding High-Content Screening Assay (CBA); type: cell-based; details: Jurkat-PD-1 cells, PE-labeled PD-L1-Ig 20 nM final; read-out: Jurkat HPD1_PDL1 IC50
T1 construct: expressed in transfected cells; host or cells: Jurkat
T1 sequence (Q15116 25-288): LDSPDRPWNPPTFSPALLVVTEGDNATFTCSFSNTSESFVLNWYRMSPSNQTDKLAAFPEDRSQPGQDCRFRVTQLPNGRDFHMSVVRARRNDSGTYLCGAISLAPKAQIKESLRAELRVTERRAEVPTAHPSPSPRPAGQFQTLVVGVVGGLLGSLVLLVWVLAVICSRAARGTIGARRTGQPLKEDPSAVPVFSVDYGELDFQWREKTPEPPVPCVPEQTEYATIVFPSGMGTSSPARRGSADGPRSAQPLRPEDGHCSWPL
How it was run: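 Cell-bound PE-labeled PD-L1-Ig (20 nM final, 1 h) measured by high-content imaging after fixation and Hoechst 33342 counterstain. Compound was applied first for 2 h at 37° C. to Jurkat cells over-expressing human PD-1 in DMEM with 10% FCS.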

Cc1cccc(C[C@@H]2NC(=O)[C@H](CC(=O)O)NC(=O)[C@H](Cc3ccc(OCC(=O)O)cc3)NC(=O)[C@H](CN)NC(=O)CSC[C@@H](C(N)=O)NC(=O)[C@H](CCCN)NC(=O)[C@H](C(C)C)NC(=O)[C@H](CC3CCCCC3)NC(=O)[C@H](CCN)NC(=O)[C@@H](CC(C)C)NC(=O)[C@H](CCCN)NC(=O)[C@H](Cc3ccc(O)cc3)NC(=O)[C@H](Cc3ccc(-c4ccccc4)cc3)NC(=O)[C@H](C(C)C)NC2=O)c1 [Compound 2264] ({CH2CO}-[Dap]Y(Carboxymethyl)D[Phe(3-Me)]V[Bip]Y[Orn][dL][Dab][Cha]V[Orn]C-NH2; thioether N-14) and Cc1cccc(C[C@@H]2NC(=O)[C@H](CC(=O)O)NC(=O)[C@H](Cc3ccc(C(=O)O)cc3)NC(=O)[C@H](Cc3ccncc3)NC(=O)CSC[C@@H](C(N)=O)NC(=O)[C@H](CCCN)NC(=O)[C@H](C(C)C)NC(=O)[C@H](CC3CCCCC3)NC(=O)[C@H](CCN)NC(=O)[C@@H](CC(C)C)NC(=O)[C@H](CCCN)NC(=O)[C@H](CCCNC(N)=O)NC(=O)[C@H](Cc3ccc(-c4ccccc4)cc3)NC(=O)[C@H](C(C)C)NC2=O)c1 [Compound 2265] ({CH2CO}-[4Pal][Phe(4-COOH)]D[Phe(3-Me)]V[Bip][Cit][Orn][dL][Dab][Cha]V[Orn]C-NH2; thioether N-14) are within 1.5-fold of each other in IC50: 0.0119 µM for the first, 0.0128 µM for the second.

Cc1cccc(C[C@@H]2NC(=O)[C@H](CC(=O)O)NC(=O)[C@H](Cc3ccc(C(=O)O)cc3)NC(=O)[C@H](Cc3ccncc3)NC(=O)CSC[C@@H](C(N)=O)NC(=O)[C@H]([C@@H](C)O)NC(=O)[C@H](C(C)(C)C)NC(=O)[C@H](CC3CCCCC3)NC(=O)[C@H](CCN)NC(=O)[C@@H](CC(C)C)NC(=O)[C@H](CCCN)NC(=O)[C@H](CCCNC(N)=O)NC(=O)[C@H](Cc3ccc(-c4ccccc4)cc3)NC(=O)[C@H](C(C)C)NC2=O)c1 [Compound 2266] ({CH2CO}-[4Pal][Phe(4-COOH)]D[Phe(3-Me)]V[Bip][Cit][Orn][dL][Dab][Cha][Tle]TC-NH2; thioether N-14) and Cc1cccc(C[C@@H]2NC(=O)[C@H](CC(=O)O)NC(=O)[C@H](Cc3ccc(C(=O)O)cc3)NC(=O)[C@H](Cc3ccncc3)NC(=O)CSC[C@@H](C(N)=O)NC(=O)[C@H](CO)NC(=O)[C@H](C(C)C)NC(=O)[C@H](CC3CCCCC3)NC(=O)[C@H](CCN)NC(=O)[C@@H](CC(C)C)NC(=O)[C@H](CCCN)NC(=O)[C@H](CCCNC(N)=O)NC(=O)[C@H](Cc3ccc(-c4ccccc4)cc3)NC(=O)[C@H](C(C)C)NC2=O)c1 [Compound 2268] ({CH2CO}-[4Pal][Phe(4-COOH)]D[Phe(3-Me)]V[Bip][Cit][Orn][dL][Dab][Cha]VSC-NH2; thioether N-14) are within 1.5-fold of each other in IC50: 0.0182 µM for the first, 0.0268 µM for the second.

First: Cc1cccc(C[C@@H]2NC(=O)[C@H](CC(=O)O)NC(=O)[C@H](Cc3ccc(C(=O)O)cc3)NC(=O)[C@H](Cc3ccncc3)NC(=O)CSC[C@@H](C(N)=O)NC(=O)[C@H]([C@@H](C)O)NC(=O)[C@H](C(C)C)NC(=O)[C@H](CC(C)C)NC(=O)[C@H](CCN)NC(=O)[C@@H](CC(C)C)NC(=O)[C@H](CCCN)NC(=O)[C@H](CCCNC(N)=O)NC(=O)[C@H](Cc3ccc(-c4ccccc4)cc3)NC(=O)[C@H](C(C)C)NC2=O)c1 [Compound 2267] ({CH2CO}-[4Pal][Phe(4-COOH)]D[Phe(3-Me)]V[Bip][Cit][Orn][dL][Dab]LVTC-NH2; thioether N-14)
Second: Cc1cccc(C[C@@H]2NC(=O)[C@H](CC(=O)O)NC(=O)[C@H](Cc3ccc(C(=O)O)cc3)NC(=O)[C@H](Cc3ccncc3)NC(=O)CSC[C@@H](C(N)=O)NC(=O)[C@H](CC(=O)O)NC(=O)[C@H](C(C)C)NC(=O)[C@H](CC3CCCCC3)NC(=O)[C@H](CCN)NC(=O)[C@@H](CC(C)C)NC(=O)[C@H](CCCN)NC(=O)[C@H](CCCNC(N)=O)NC(=O)[C@H](Cc3ccc(-c4ccccc4)cc3)NC(=O)[C@H](C(C)C)NC2=O)c1 [Compound 2270] ({CH2CO}-[4Pal][Phe(4-COOH)]D[Phe(3-Me)]V[Bip][Cit][Orn][dL][Dab][Cha]VDC-NH2; thioether N-14)
The IC50 of the first is 1.8-fold higher: 0.0448 µM for the first, 0.0245 µM for the second.

Cc1cccc(C[C@@H]2NC(=O)[C@H](CC(=O)O)NC(=O)[C@H](Cc3ccc(C(=O)O)cc3)NC(=O)[C@H](Cc3ccncc3)NC(=O)CSC[C@@H](C(N)=O)NC(=O)[C@H](CCC(=O)O)NC(=O)[C@H](C(C)C)NC(=O)[C@H](CC3CCCCC3)NC(=O)[C@H](CCN)NC(=O)[C@@H](CC(C)C)NC(=O)[C@H](CCCN)NC(=O)[C@H](CCCNC(N)=O)NC(=O)[C@H](Cc3ccc(-c4ccccc4)cc3)NC(=O)[C@H](C(C)C)NC2=O)c1 [Compound 2269] ({CH2CO}-[4Pal][Phe(4-COOH)]D[Phe(3-Me)]V[Bip][Cit][Orn][dL][Dab][Cha]VEC-NH2; thioether N-14) and Cc1cccc(C[C@@H]2NC(=O)[C@H](CC(=O)O)NC(=O)[C@H](Cc3ccc(C(=O)O)cc3)NC(=O)[C@H](Cc3ccncc3)NC(=O)CSC[C@@H](C(N)=O)NC(=O)[C@H](CCC(N)=O)NC(=O)[C@H](C(C)C)NC(=O)[C@H](CC3CCCCC3)NC(=O)[C@H](CCN)NC(=O)[C@@H](CC(C)C)NC(=O)[C@H](CCCN)NC(=O)[C@H](CCCNC(N)=O)NC(=O)[C@H](Cc3ccc(-c4ccccc4)cc3)NC(=O)[C@H](C(C)C)NC2=O)c1 [Compound 2272] ({CH2CO}-[4Pal][Phe(4-COOH)]D[Phe(3-Me)]V[Bip][Cit][Orn][dL][Dab][Cha]VQC-NH2; thioether N-14) are within 1.5-fold of each other in IC50: 0.0341 µM for the first, 0.032 µM for the second.

First: Cc1cccc(C[C@@H]2NC(=O)[C@H](CC(=O)O)NC(=O)[C@H](Cc3ccc(C(=O)O)cc3)NC(=O)[C@H](Cc3ccncc3)NC(=O)CSC[C@@H](C(N)=O)NC(=O)[C@H](CC(N)=O)NC(=O)[C@H](C(C)C)NC(=O)[C@H](CC3CCCCC3)NC(=O)[C@H](CCN)NC(=O)[C@@H](CC(C)C)NC(=O)[C@H](CCCN)NC(=O)[C@H](CCCNC(N)=O)NC(=O)[C@H](Cc3ccc(-c4ccccc4)cc3)NC(=O)[C@H](C(C)C)NC2=O)c1 [Compound 2271] ({CH2CO}-[4Pal][Phe(4-COOH)]D[Phe(3-Me)]V[Bip][Cit][Orn][dL][Dab][Cha]VNC-NH2; thioether N-14)
Second: CCC(C)[C@@H]1NC(=O)[C@H](Cc2ccc(-c3ccccc3)cc2)NC(=O)[C@H](C(C)C)NC(=O)[C@H](Cc2cccc(C)c2)NC(=O)[C@H](CC(=O)O)NC(=O)[C@H](Cc2ccc(C(=O)O)cc2)NC(=O)[C@H](Cc2ccncc2)NC(=O)CSC[C@@H](C(N)=O)NC(=O)[C@H](CCCN)NC(=O)[C@H](C(C)C)NC(=O)[C@H](CC2CCCCC2)NC(=O)[C@H](CCN)NC(=O)[C@@H](CC(C)C)NC(=O)[C@H](CCCN)NC1=O (stereo partly drawn) [Compound 2273] ({CH2CO}-[4Pal][Phe(4-COOH)]D[Phe(3-Me)]V[Bip][Ile(3ξ)][Orn][dL][Dab][Cha]V[Orn]C-NH2; thioether N-14)
The IC50 of the first is 1.7-fold lower: 0.016 µM for the first, 0.0266 µM for the second. The first is the more potent here.

In the case of CCC(C)[C@@H]1NC(=O)[C@H](Cc2ccc(-c3ccccc3)cc2)NC(=O)[C@H](C(C)C)NC(=O)[C@H](Cc2cccc(C)c2)NC(=O)[C@H](CC(=O)O)NC(=O)[C@H](Cc2ccc(C(=O)O)cc2)NC(=O)[C@H](Cc2ccncc2)NC(=O)CSC[C@@H](C(N)=O)NC(=O)[C@H]([C@@H](C)O)NC(=O)[C@H](C(C)(C)C)NC(=O)[C@H](CC2CCCCC2)NC(=O)[C@H](CCN)NC(=O)[C@@H](CC(C)C)NC(=O)[C@H](CCCN)NC1=O (stereo partly drawn) [Compound 2274] ({CH2CO}-[4Pal][Phe(4-COOH)]D[Phe(3-Me)]V[Bip][Ile(3ξ)][Orn][dL][Dab][Cha][Tle]TC-NH2; thioether N-14), the IC50 is reported as 0.0363 µM.
